Patent publication US8357707B2, “2-carboxamide cycloamino ureas” (Novartis AG, priority 2009, dated 2013)

Experiments:
Format in all cases: biochemical
PI3Kα = target: T1, PI3Kα (Homo sapiens, UniProt P42336); assay: PI3K KinaseGlo assay, PI3Kalpha; details: 10 nM enzyme, 1 μM ATP, 30 mins
T1 construct: His tag (C); made in house; host or cells: Tn5 insect cells, baculovirus BV-1075

PI3Kβ = target: T2, PI3Kβ (Homo sapiens, UniProt P42338); assay: PI3K KinaseGlo assay, PI3Kbeta; details: 25 nM enzyme, 1 μM ATP, 30 mins
T2 construct: His tag (C); made in house; host or cells: Tn5 insect cells, baculovirus BV949 (vector LR280)
T2 sequence (P42338 with tags, fused parts or gaps): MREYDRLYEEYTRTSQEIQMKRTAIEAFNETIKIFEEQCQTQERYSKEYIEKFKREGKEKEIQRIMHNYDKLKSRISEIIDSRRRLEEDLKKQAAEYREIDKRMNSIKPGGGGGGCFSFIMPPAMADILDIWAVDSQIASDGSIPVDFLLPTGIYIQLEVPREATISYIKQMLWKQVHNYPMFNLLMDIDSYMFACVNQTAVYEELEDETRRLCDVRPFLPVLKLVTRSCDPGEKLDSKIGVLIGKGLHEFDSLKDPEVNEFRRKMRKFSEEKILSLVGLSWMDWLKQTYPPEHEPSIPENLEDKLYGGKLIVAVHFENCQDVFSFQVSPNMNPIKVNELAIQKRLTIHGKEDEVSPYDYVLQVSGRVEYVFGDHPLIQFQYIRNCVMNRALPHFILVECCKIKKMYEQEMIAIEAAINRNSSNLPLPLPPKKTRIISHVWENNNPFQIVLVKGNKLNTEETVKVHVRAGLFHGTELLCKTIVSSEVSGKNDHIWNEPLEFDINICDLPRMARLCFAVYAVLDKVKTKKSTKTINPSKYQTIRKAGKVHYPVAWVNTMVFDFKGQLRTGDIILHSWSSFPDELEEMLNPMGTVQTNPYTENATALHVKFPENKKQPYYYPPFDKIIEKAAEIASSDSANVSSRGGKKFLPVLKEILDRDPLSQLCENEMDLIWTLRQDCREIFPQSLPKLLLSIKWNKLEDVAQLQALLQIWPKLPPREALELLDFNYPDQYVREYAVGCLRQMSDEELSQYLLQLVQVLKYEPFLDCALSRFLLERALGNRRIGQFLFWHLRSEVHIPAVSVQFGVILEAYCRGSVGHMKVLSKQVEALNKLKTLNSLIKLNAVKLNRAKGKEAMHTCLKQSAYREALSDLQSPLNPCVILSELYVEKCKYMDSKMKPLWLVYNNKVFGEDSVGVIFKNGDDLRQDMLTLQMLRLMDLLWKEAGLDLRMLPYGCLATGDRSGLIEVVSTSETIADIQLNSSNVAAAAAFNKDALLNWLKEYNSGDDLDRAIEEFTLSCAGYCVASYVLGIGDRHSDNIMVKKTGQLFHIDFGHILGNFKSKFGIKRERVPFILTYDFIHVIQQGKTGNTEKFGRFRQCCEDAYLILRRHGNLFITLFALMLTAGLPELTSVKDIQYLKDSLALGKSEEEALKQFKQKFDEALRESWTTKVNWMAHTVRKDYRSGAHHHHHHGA

PI3Kγ = target: T3, PI3Kγ (Homo sapiens, UniProt P48736, Q459R); assay: PI3K KinaseGlo assay, PI3Kgamma; details: 150 nM enzyme, 1 μM ATP, 90 mins
T3 construct: Constructs lacking the N-terminal 144 aa; His tag (C); made in house; host or cells: Tn5 insect cells, baculovirus BV950; construct from the Roger Williams lab (MRC LMB)
T3 sequence (P48736 with tags, fused parts or gaps Q459R): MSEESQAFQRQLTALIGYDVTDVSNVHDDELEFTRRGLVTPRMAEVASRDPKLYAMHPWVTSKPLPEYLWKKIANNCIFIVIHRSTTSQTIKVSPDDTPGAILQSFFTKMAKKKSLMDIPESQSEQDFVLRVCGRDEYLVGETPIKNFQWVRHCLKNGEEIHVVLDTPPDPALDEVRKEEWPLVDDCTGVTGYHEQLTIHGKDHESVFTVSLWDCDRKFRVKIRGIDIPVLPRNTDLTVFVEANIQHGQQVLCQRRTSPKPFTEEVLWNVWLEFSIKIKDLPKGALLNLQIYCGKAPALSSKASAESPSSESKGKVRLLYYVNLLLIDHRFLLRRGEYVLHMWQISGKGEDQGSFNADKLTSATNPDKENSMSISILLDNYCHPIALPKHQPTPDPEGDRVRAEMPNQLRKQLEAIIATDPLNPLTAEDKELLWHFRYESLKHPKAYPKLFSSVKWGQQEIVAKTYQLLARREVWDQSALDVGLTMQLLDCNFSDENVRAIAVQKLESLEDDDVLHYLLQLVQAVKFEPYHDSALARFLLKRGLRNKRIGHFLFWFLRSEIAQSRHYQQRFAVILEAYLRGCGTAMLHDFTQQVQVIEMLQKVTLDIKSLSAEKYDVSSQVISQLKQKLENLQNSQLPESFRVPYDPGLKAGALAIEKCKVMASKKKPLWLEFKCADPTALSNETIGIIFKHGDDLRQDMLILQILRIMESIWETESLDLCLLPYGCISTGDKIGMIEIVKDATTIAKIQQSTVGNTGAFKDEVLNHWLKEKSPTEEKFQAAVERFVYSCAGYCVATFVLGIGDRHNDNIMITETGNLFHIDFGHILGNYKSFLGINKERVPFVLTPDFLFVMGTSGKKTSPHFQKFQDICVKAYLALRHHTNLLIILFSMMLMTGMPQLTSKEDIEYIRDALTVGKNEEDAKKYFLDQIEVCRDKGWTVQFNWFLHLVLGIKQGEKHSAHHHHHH

PI3Kδ = target: T4, PI3Kδ (Homo sapiens, UniProt O00329); assay: PI3K KinaseGlo assay, PI3Kdelta; details: 10 nM enzyme, 1 μM ATP, 30 mins
T4 construct: His tag (C); made in house; host or cells: Tn5 insect cells, baculovirus BV1060 (vector LR415)
T4 sequence (O00329 with tags, fused parts or gaps): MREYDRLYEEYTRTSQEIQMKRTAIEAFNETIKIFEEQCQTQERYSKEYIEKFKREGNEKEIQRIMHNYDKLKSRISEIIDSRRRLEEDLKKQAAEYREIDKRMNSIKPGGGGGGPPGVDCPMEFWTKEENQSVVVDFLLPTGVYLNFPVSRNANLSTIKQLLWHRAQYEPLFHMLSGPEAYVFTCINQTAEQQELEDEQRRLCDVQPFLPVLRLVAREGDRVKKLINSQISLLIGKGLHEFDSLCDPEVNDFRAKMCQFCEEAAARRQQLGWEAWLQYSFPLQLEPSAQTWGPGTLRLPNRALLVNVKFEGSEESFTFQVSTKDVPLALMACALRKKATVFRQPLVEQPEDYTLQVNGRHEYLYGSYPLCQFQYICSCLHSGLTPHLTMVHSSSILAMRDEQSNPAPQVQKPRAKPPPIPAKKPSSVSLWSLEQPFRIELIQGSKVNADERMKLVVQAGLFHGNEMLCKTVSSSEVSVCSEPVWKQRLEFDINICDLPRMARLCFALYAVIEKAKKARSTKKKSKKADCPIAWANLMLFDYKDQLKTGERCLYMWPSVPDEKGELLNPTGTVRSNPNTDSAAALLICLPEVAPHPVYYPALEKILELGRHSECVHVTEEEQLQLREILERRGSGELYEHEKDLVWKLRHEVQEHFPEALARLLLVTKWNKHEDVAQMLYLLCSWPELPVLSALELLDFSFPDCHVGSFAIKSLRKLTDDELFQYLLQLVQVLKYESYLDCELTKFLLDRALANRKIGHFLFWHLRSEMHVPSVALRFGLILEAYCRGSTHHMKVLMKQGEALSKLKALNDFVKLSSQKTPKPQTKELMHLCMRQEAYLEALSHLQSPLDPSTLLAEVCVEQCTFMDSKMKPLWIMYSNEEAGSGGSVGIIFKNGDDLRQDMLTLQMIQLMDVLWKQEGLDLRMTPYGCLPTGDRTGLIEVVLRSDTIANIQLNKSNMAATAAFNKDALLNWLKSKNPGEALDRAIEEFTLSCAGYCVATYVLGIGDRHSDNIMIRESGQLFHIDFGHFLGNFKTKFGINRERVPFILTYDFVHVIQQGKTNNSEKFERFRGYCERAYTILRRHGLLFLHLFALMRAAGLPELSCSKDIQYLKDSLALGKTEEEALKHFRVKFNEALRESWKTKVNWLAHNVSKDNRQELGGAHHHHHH

T1 sequence (P42336 with tags, fused parts or gaps): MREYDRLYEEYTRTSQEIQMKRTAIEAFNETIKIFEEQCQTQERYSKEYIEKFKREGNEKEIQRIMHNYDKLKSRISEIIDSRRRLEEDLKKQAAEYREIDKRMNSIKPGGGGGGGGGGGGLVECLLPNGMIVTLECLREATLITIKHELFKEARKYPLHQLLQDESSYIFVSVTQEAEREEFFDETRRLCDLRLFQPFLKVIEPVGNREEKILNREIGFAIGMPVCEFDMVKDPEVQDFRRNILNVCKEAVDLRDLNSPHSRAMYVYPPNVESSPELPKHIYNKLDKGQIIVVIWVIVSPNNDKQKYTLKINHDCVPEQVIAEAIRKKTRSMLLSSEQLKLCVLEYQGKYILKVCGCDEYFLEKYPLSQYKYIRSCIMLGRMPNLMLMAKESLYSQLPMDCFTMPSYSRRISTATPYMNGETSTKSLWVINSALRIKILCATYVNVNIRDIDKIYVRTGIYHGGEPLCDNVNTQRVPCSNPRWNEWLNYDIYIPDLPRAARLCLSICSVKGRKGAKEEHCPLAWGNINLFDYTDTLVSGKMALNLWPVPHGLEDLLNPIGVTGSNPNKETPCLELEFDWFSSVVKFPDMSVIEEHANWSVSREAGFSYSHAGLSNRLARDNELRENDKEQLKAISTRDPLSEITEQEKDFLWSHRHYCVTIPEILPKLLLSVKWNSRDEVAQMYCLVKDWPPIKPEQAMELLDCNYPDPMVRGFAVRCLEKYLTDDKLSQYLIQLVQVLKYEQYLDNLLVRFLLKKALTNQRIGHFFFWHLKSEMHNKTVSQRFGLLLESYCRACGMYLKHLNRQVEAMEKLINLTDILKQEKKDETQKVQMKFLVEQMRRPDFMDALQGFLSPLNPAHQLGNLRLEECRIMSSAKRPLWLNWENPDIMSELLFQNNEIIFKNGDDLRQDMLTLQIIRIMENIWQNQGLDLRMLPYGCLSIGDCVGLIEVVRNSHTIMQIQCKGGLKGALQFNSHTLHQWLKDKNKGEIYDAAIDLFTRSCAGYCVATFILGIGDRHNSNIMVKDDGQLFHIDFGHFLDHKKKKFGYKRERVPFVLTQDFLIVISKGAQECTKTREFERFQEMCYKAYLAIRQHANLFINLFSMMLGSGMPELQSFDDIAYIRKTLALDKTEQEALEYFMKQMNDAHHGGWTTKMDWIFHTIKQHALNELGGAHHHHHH

| Compound | IC50 (PI3Kα) [µM] | IC50 (PI3Kβ) [µM] | IC50 (PI3Kγ) [µM] | IC50 (PI3Kδ) [µM] |
| --- | --- | --- | --- | --- |
| CCN(CC)c1ncc2c(n1)-c1sc(NC(=O)N3C[C@@H](F)C[C@H]3C(N)=O)nc1CC2 [Example 17, (2S,4S)-4-Fluoro-pyrrolidine-1,2-dicarboxylic acid 2-amide 1-[(8-diethylamino-4,5-dihydro-thiazolo[4,5-h]quinazolin-2-yl)-amide]] | 0.008 | 0.389 | 0.153 | 0.236 |
| CCN(CC)c1ncc2c(n1)-c1sc(NC(=O)N3C[C@@H](N(C)C)C[C@H]3C(N)=O)nc1CC2 [Example 22, (2S,4S)-4-Dimethylamino-pyrrolidine-1,2-dicarboxylic acid 2-amide 1-[(8-diethylamino-4,5-dihydro-thiazolo[4,5-h]quinazolin-2-yl)-amide]] | 0.0235 | 6.91 | 0.262 | 1.9 |
| CC(C)(C)c1ncc2c(n1)-c1sc(NC(=O)N3CCC3C(N)=O)nc1CC2 (stereo not shown) [Example 24, Azetidine-1,2-dicarboxylic acid 2-amide 1-[(8-tert-butyl-4,5-dihydro-thiazolo[4,5-h]quinazolin-2-yl)-amide]] | 0.007 | 0.135 | 0.098 | 0.024 |
| CC(C)(C)c1ncc2c(n1)-c1sc(NC(=O)N3CC[C@H]3C(N)=O)nc1CC2 [Example 25, (S)-Azetidine-1,2-dicarboxylic acid 2-amide 1-[(8-tert-butyl-4,5-dihydro-thiazolo[4,5-h]quinazolin-2-yl)-amide]] | 0.0055 | 0.346 | 0.122 | 0.045 |
| CC(C)(C)c1nc2c(s1)CCc1nc(NC(=O)N3CC[C@H]3C(N)=O)sc1-2 [Example 30, (S)-Azetidine-1,2-dicarboxylic acid 2-amide 1-[(7-tert-butyl-4,5-dihydro-benzo[1,2-d;3,4-d′]bisthiazol-2-yl)-amide]] | 0.023 | 2.14 | 0.119 | 0.294 |
| (R)-2-Benzyl-pyrrolidine-1,2-dicarboxylic acid 2-amide 1-[(8-diethylamino-4,5-dihydro-thiazolo[4,5-h]quinazolin-2-yl)-amide] [Example 3] | 0.045 | 0.127 | 1.59 | 0.74 |

Continued, values first:

| IC50 (PI3Kα) [µM] | IC50 (PI3Kβ) [µM] | IC50 (PI3Kγ) [µM] | IC50 (PI3Kδ) [µM] | Compound |
| --- | --- | --- | --- | --- |
| 0.0055 | 0.297 | 0.074 | 0.06 | CCN(CC)c1ncc2c(n1)-c1sc(NC(=O)N3C[C@H](F)C[C@H]3C(N)=O)nc1CC2 [Example 16, (2S,4R)-4-Fluoro-pyrrolidine-1,2-dicarboxylic acid 2-amide 1-[(8-diethylamino-4,5-dihydro-thiazolo[4,5-h]quinazolin-2-yl)-amide]] |
| 0.0055 | 0.588 | 0.123 | 0.077 | CCN(CC)c1ncc2c(n1)-c1sc(NC(=O)N3CC[C@@H]4C[C@@]43C(N)=O)nc1CC2 [Example 19, (1S,5R)-2-Aza-bicyclo[3.1.0]hexane-1,2-dicarboxylic acid 1-amide 2-[(8-diethylamino-4,5-dihydro-thiazolo[4,5-h]quinazolin-2-yl)-amide]] |
| < 0.003 | 0.519 | 0.237 | 0.036 | CCN(CC)c1ncc2c(n1)-c1sc(NC(=O)N3CC[C@@H](C)[C@H]3C(N)=O)nc1CC2 [Example 21, (2S,3R)-3-Methyl-pyrrolidine-1,2-dicarboxylic acid 2-amide 1-[(8-diethylamino-4,5-dihydro-thiazolo[4,5-h]quinazolin-2-yl)-amide]] |
| 0.0065 | 0.328 | 0.138 | 0.058 | CCN(CC)c1ncc2c(n1)-c1sc(NC(=O)N3C[C@@H](O)C[C@H]3C(N)=O)nc1CC2 [Example 26, (2S,4S)-4-Hydroxy-pyrrolidine-1,2-dicarboxylic acid 2-amide 1-[(8-diethylamino-4,5-dihydro-thiazolo[4,5-h]quinazolin-2-yl)-amide]] |
| 0.0045 | 0.397 | 0.097 | 0.072 | CCN(CC)c1ncc2c(n1)-c1sc(NC(=O)N3C[C@H](O)C[C@H]3C(N)=O)nc1CC2 [Example 27, (2S,4R)-4-Hydroxy-pyrrolidine-1,2-dicarboxylic acid 2-amide 1-[(8-diethylamino-4,5-dihydro-thiazolo[4,5-h]quinazolin-2-yl)-amide]] |
| 0.0515 | 5.83 | 1.23 | 1.94 | CN(C)[C@@H]1C[C@@H](C(N)=O)N(C(=O)Nc2nc3c(s2)-c2nc(C(C)(C)C)sc2CC3)C1 [Example 31, (2S,4R)-4-Dimethylamino-pyrrolidine-1,2-dicarboxylic acid 2-amide 1-[(7-tert-butyl-4,5-dihydro-benzo[1,2-d;3,4-d′]bisthiazol-2-yl)-amide]] |
| 0.007 | 1.09 | 0.131 | 0.043 | CC(C)(CF)c1nc2c(s1)CCc1nc(NC(=O)N3CCC[C@H]3C(N)=O)sc1-2 [Example 32, (S)-Pyrrolidine-1,2-dicarboxylic acid 2-amide 1-{[7-(2-fluoro-1,1-dimethyl-ethyl)-4,5-dihydro-benzo[1,2-d;3,4-d′]bisthiazol-2-yl]-amide}] |
